Laboratory results reported in article PMC3714282, “Pharmacometabolomics of Response to Sertraline and to Placebo in Major Depressive Disorder – Possible Role for Methoxyindole Pathway” (PLoS ONE, 2013).

Tested on: outpatients with MDD
Experiment: Randomized double-blind 4-week trial, response by 17-item Hamilton Rating Scale for Depression (HAMD17)
Format: in vivo, human
Source text: The 75 patients in this report were a subset of the 165 patients who entered a randomized, double-blind, flexible dosing, placebo-controlled study performed at 12 clinical sites. […] Subjects selected for this study were those with serum samples and HAMD17 scores available at baseline and 1 week and at 4 weeks (+/−1 week) after treatment. Finally, the subset of participants in this study largely overlaps with those used in our previous study.
Study participants were outpatients, 18–65 years of age, from various clinical sites across the United States. […] A complete description of the inclusion and exclusion used in this study can be found in Table S1. The study protocol was developed in accordance with the principles of the Declaration of Helsinki. All patients provided written informed consent. The study was sponsored and monitored by Pfizer, Inc. Each site's institutional review board approved and oversaw the study. The primary outcome measure was the HAMD17, used to assess depressive symptom severity. Measures were gathered at baseline, and weeks 1 and 4 of treatment at the patient's visits. Serum samples were collected using standard protocol at baseline, week 1 and week 4 of treatment at the clinic visits. Whole blood was collected in serum collection tubes and inverted 5–8 times. Serum samples were allowed to clot at room temperature for 60 minutes and then centrifuged at 1,300×g for 15 minutes. Following centrifugation supernatant was frozen at −80°C until analysis.
Signatures of response to sertraline and placebo were identified by using paired t-tests to compare week 4 metabolite levels to baseline metabolite levels in the responders and non-responders to therapy. […] These analyses were also performed to evaluate changes in ratios of individual metabolites within (e.g., 5-HT/5-HTP) and between branches of tryptophan pathway (e.g., KYN/MEL).

For `CN[C@H]1CC[C@@H](c2ccc(Cl)c(Cl)c2)c2ccccc21` [Sertraline, sertraline], the “APC, average percent change in HAMD17 score” value (Female patients) was “Female: APC= -55%”, the “APC, average percent change in HAMD17 score” value (Non-White patients) was “Non-White: APC= -52%” and the “response rate (responders: ≥50% reduction in HAMD17 scores)” value (after four weeks, 21/35 patients, 50-150 mg/day) was 60%.
